Experimental data taken from patent publication US6350476B1, “Herbal chinese joint complex” (Shanxi Zhengzhon Pharmaceutical Co., Ltd., priority 2000, dated 2002).

What was measured:
[1] = as little as; cited from earlier work
[2] = test system: inflammation of primary arthritis caused by injection of Freund's complete adjuvant (rat hind paw); assay: Animal Study 1: primary arthritis caused by Freund's complete adjuvant, treatment before injection; type: in vivo; conditions: rats, 0.15 g/kg gastrogavage once a day for 3 days
Procedure: (§1) The compositions used in these experiments were prepared by the Pharmaceutical Preparation Room of Taiyuan Rheumatoid Arthritis Hospital using the procedures outlined above. Distilled water was added to prepare a suspension of the density required for the tests.
(§2) Aspirin (99.6%) was manufactured by Nanjing Pharmacy. A 10% of gum acacia solution was added to prepare a suspension of the density required for the test.
(§3) Distilled water was used for the control groups.
Male rats were randomly divided into four groups of ten rats each, with the total weight of each group being 172.5±8.0 g. The perimeters of the rat hind paws were measured. Each group of rats was fed either water (control), aspirin (0.15 g/kg of body weight), or the composition disclosed in U.S. Pat. No. 5,908,628 (either 1.5 g or 3.0 g/kg of body weight) by means of gastrogavage, once a day for 3 days. On the third day, 1 hour after the gastrogavage, 0.1 ml of Freund's complete adjuvant was intradermally injected into each rat's right hind paw to induce inflammation. The perimeters of the left and right hind paws were measured 2, 4, 6, 24, 48 and 72 hours after inflammation.

[3] = test system: inflammation of primary arthritis caused by injection of Freund's complete adjuvant (rat hind paw); assay: Animal Study 2: primary arthritis caused by Freund's complete adjuvant, treatment one week after injection; type: in vivo; conditions: rats
Procedure: as §1, §2, §3
Male rats were randomly divided into four groups of ten rats each, with the total weight of each group being 172.5±8.0 g. The perimeters of the left and right rat hind paws were measured. 0.1 ml of Freund's complete adjuvant was intradermally injected into each rat's right hind paw to induce inflammation. One week after injection of Freund's complete adjuvant, each group of rats was fed either water (control), aspirin (0.15 g/kg of body weight), or the composition disclosed in U.S. Pat. No. 5,908,628 (either 1.5 g or 3.0 g/kg of body weight) by means of gastrogavage. The hind paws were observed and measured 1, 4 and 7 days after receiving treatments of either water, aspirin or the composition disclosed in U.S. Pat. No. 5,908,628. Results of the treatments were determined by measuring the degree of swelling of the injected versus non-injected hind paws, changes in body weight, the number of tubercles, and an overall visual score of the difference between the injected and non-injected paws. The visual score included observations on erythema of the ears and the swelling of the hind paws, ankle joints, and paw joints.

[4] = test system: carrageenin-induced edematous footpad in mice; assay: Animal Study 3: carrageenin-induced edematous footpad; type: in vivo; conditions: 0.15 g/kg gastrogavage once a day for 8 days
Procedure: as §1, §2, §3
This test was conducted according to the procedure established by Xu-Shu-Yun, Methodology of the Pharmacologic Experiments, The People's Public Health Publishing House, 717 (1991). Male mice were randomly assigned to one of four groups of ten mice each, each group weighing 22.5±2.1 g. Each group of mice was fed either water (control), aspirin (0.15 g/kg of body weight), or the composition disclosed in U.S. Pat. No. 5,908,628 (either 1.5 g or 3.0 g/kg of body weight) by means of gastrogavage, once a day for 8 days. On the eighth day, 1 hour after the gastrogavage, 0.1 ml of a 1.0% carrageenin solution was hypodermically injected into the right ankle joint. Using a volumometer, the volumes of the paw and ankle joints were measured 0.5, 1, 2, 3 and 4 hours after inflammation and the values were used to calculate a swelling value.

[5] = test system: increased capillary permeability induced by I.P. 0.7 acetic acid in mice; assay: Animal Study 5: capillary permeability induced by glacial acetic acid; type: in vivo; conditions: 0.15 g/kg gastrogavage, 20 minutes after injection
Procedure: as §1, §2, §3
This test was conducted according to the procedure established by Chen Qi, The People's Public Health House, 303 (1993). Mice were randomly assigned to one of 4 groups, each group having a total weight of 21.8±1.9 g and consisting of 5 male and 5 female mice each. Each group of mice was fed either water (control), aspirin (0.15 g/kg of body weight), or the composition disclosed in U.S. Pat. No. 5,908,628 (either 1.5 g or 3.0 g/kg of body weight) by means of gastrogavage. One hour after the gastrogavage, a solution consisting of 0.5% Evans blue and (I.P.) 0.7% glacial acetic acid 0.1 m/10 g (body weight) was hypodermically injected into the mice. I.P. densitometry values were collected 20 minutes after the injection.

[6] = test system: hyperplasia of connective tissues (granulomatosis); assay: Animal Study 6: granulomatosis induced by Cotton Pallet Method; type: in vivo; conditions: rats; 0.1 g/kg gastrogavage once daily for 8 days
Procedure: as §1, §2, §3
This test was conducted according to the procedure established by the Medication Dept. of the Public Health Ministry (Collection of Guiding Principles on Western Medicine's Pre-Clinical Research, 271 (1993)). Rats were randomly assigned to one of 4 groups, each group consisting of 8 rats with a total weight 157.8±9.0 g. The rats in each group were anesthetized, tiny incisions were cut on the left and right groins, and 10 mg of sterilized cotton was placed inside each cut. […] On the day following the last gastrogavage, the cotton and any granuloma deposits thereon were removed from the incisions, dried at a temperature of 60° C. for 12 hours, after which they were individually weighed. The weight of the granuloma deposits was calculated by subtracting […] (i.e., 10 mg). […] The Inhibitory Ratio is calculated as follows: […]

[7] = test system: fever caused by yeast injection; assay: Animal Study 7: anti-pyretic action on pyrexial rat caused by injection of fresh yeast; type: in vivo; conditions: rats, 0.15 g/kg gastrogavage
Procedure: as §1, §2, §3
This test was conducted according to the procedure established by Chen Qi, The People's Public Health House, 271 (1993).
The rats were randomly divided into 4 groups, each group weighing 210.0±10.9 g and consisting of 5 male and 5 female rats each. Rats were maintained in the test environmental conditions for 3 days during which their anal temperatures were recorded twice daily. On the fourth day the anal temperature was measured every half hour. Next, a 15% solution of fresh yeast suspension (2 ml/100 g) was injected into the back of each rat. Anal temperature was measured 4 hours later. The rats whose temperatures rose above 1° C. were divided into 4 groups, each group consisting of 10 rats. Each group of rats was fed either water (control), aspirin (0.15 g/kg of body weight), or the composition disclosed in U.S. Pat. No. 5,908,628 (either 1.5 g or 3.0 g/kg of body weight) by means of gastrogavage. Anal temperatures were determined 1, 2, 3 and 4 hours after the gastrogavage.

[8] = test system: writhing caused by injection of 0.5% acetic acid; assay: Animal Study 8: writhing reaction caused by injection of 0.5% acetic acid; type: in vivo; conditions: mice, 0.2 g/kg gastrogavage
Procedure: as §1, §2, §3
This test measures the analgesic action of the composition disclosed in U.S. Pat. No. 5,908,628 on writhing caused by injection of 0.5% acetic acid according to the procedure established by Chen Qi. Methodology of Chinese Herbs Pharmacologic Research, The People's Public Health Publishing House, 378 (1993).
The mice are randomly divided into 4 groups, each of which consists of 10 male and 10 female mice, with the total weight of each group being 20.9±1.1 g. […] Pat. No. […] One hour after the gastrogavage, a solution of (I.P.) 0.5% acetic acid (0.2 ml/20 g) was injected into the mice. The number of writhing reactions was counted during the 30 minutes immediately following the injection.

## COc1cc2c(c(OC)c1OC)-c1ccc(OC)c(=O)cc1[C@@H](NC(C)=O)CC2 [colchicine]
[1]
  smallest amount found to be fatal: 7 mg

## CC(=O)Oc1ccccc1C(=O)O [Aspirin, acetylsalicylic acid]
[2]; 2 h after inflammation
  Swelling Measurement, 2 h: 2.40 ± 1.08 mm
[2]; 4 h after inflammation
  Swelling Measurement, 4 h: 4.40 ± 1.57 mm
[2]; 6 h after inflammation
  Swelling Measurement, 6 h: 5.30 ± 1.34 mm
[2]; 24 h after inflammation
  Swelling Measurement, 24 h: 3.20 ± 0.92 mm
[2]; 48 h after inflammation
  Swelling Measurement, 48 h: 5.01 ± 1.92 mm
[2]; 72 h after inflammation
  Swelling Measurement, 72 h: 5.80 ± 1.75 mm
[3]; 0.15 g/kg
  No. of Tubercles: 1
  Visual Score: 1
[3]; 0.15 g/kg gastrogavage one week after adjuvant injection
  Swelling: 0.0 ± 0.57 mm
[4]; 0.5 hr
  Degree of swelling of Hind Paw, 0.5 hr after injection: 0.08 ± 0.03 mL
[4]; 1 hr
  Degree of swelling of Hind Paw, 1 hr after injection: 0.12 ± 0.03 mL
[4]; 2 hr
  Degree of swelling of Hind Paw, 2 hr after injection: 0.03 ± 0.02 mL
[4]; 3 hr
  Degree of swelling of Hind Paw, 3 hr after injection: 0.01 ± 0.01 mL
[4]; 4 hr
  Degree of swelling of Hind Paw, 4 hr after injection: 0.01 ± 0.0 mL
[5]
  Evans blue (densitometry): 0.231 ± 0.07
[6]
  Dry Weight of the granuloma: 10.1 ± 1.6 mg/100 g
  Inhibitory rate %: 17.89%
[7]; 1 hr after the gastrogavage
  Changes in Body Temperature after injection with yeast, 1 hr: 37.9 ± 0.9 °C
[7]; 2 hr after the gastrogavage
  Changes in Body Temperature after injection with yeast, 2 hr: 37.6 ± 0.9 °C
[7]; 3 hr after the gastrogavage
  Changes in Body Temperature after injection with yeast, 3 hr: 37.8 ± 1.0 °C
[7]; 4 hr after the gastrogavage
  Changes in Body Temperature after injection with yeast, 4 hr: 38.3 ± 0.7 °C
[8]
  Analgesic Rate (%): 63.31%
[8]; 30 minutes following acetic acid injection
  Writhing Quantity: 24.4 ± 10.0
